Measured values: the NIST ThermoML archive (doi:10.1016/j.tca.2013.03.025)

Assay: xn = mol fraction of the nth substance listed
Conditions: 101 kPa, Liquid; for viscosity: Concentric cylinders viscometry; for mass density: Vibrating tube method

CCCCOC(=O)C(C)O (stereo not given) [butyl 2-hydroxypropanoate] + CC(O)CO
Conditions	mass density [kg/m3]	viscosity [mPa·s]
288.15 K, x1 = 0.0999	1028.94	49.57
288.15 K, x1 = 0.2	1020.52	32.76
288.15 K, x1 = 0.3	1014.01	22.44
288.15 K, x1 = 0.3999	1008.69	16.49
288.15 K, x1 = 0.4998	1004.11	12.5
288.15 K, x1 = 0.6	999.883	9.662
288.15 K, x1 = 0.6996	996.116	7.754
288.15 K, x1 = 0.7999	992.836	6.357
288.15 K, x1 = 0.9	990.017	5.352
288.15 K, x1 = 1	987.269	4.628
293.15 K, x1 = 0.0999	1025.09	36.74
293.15 K, x1 = 0.2	1016.49	24.82
293.15 K, x1 = 0.3	1009.81	17.35
293.15 K, x1 = 0.3999	1004.36	12.96
293.15 K, x1 = 0.4998	999.672	9.963
293.15 K, x1 = 0.6	995.344	7.814
293.15 K, x1 = 0.6996	991.481	6.325
293.15 K, x1 = 0.7999	988.111	5.256
293.15 K, x1 = 0.9	985.199	4.454
293.15 K, x1 = 1	982.366	3.88
298.15 K, x1 = 0.0999	1021.19	27.81
298.15 K, x1 = 0.2	1012.41	19.18
298.15 K, x1 = 0.3	1005.65	13.58
298.15 K, x1 = 0.3999	1000	10.3
298.15 K, x1 = 0.4998	995.208	8.084
298.15 K, x1 = 0.6	990.768	6.393
298.15 K, x1 = 0.6996	986.821	5.252
298.15 K, x1 = 0.7999	983.363	4.394
298.15 K, x1 = 0.9	980.366	3.772
298.15 K, x1 = 1	977.448	3.307
303.15 K, x1 = 0.0999	1017.29	21.45
303.15 K, x1 = 0.2	1008.34	15.08
303.15 K, x1 = 0.3	1001.42	10.86
303.15 K, x1 = 0.3999	995.637	8.42
303.15 K, x1 = 0.4998	990.737	6.606
303.15 K, x1 = 0.6	986.189	5.339
303.15 K, x1 = 0.6996	982.143	4.426
303.15 K, x1 = 0.7999	978.595	3.741
303.15 K, x1 = 0.9	975.512	3.226
303.15 K, x1 = 1	972.515	2.86
308.15 K, x1 = 0.0999	1013.34	16.82
308.15 K, x1 = 0.2	1004.23	12.05
308.15 K, x1 = 0.3	997.153	8.886
308.15 K, x1 = 0.3999	991.238	6.935
308.15 K, x1 = 0.4998	986.236	5.542
308.15 K, x1 = 0.6	981.583	4.506
308.15 K, x1 = 0.6996	977.444	3.772
308.15 K, x1 = 0.7999	973.812	3.212
308.15 K, x1 = 0.9	970.644	2.796
308.15 K, x1 = 1	967.567	2.481
313.15 K, x1 = 0.0999	1009.36	13.4
313.15 K, x1 = 0.2	1000.07	9.766
313.15 K, x1 = 0.3	992.852	7.317
313.15 K, x1 = 0.3999	986.813	5.772
313.15 K, x1 = 0.4998	981.71	4.666
313.15 K, x1 = 0.6	976.954	3.848
313.15 K, x1 = 0.6996	972.719	3.25
313.15 K, x1 = 0.7999	969.003	2.791
313.15 K, x1 = 0.9	965.755	2.449
313.15 K, x1 = 1	962.603	2.181
318.15 K, x1 = 0.0999	1005.34	10.83
318.15 K, x1 = 0.2	995.893	8.021
318.15 K, x1 = 0.3	988.531	6.099
318.15 K, x1 = 0.3999	982.364	4.873
318.15 K, x1 = 0.4998	977.162	3.982
318.15 K, x1 = 0.6	972.304	3.319
318.15 K, x1 = 0.6996	967.975	2.828
318.15 K, x1 = 0.7999	964.179	2.449
318.15 K, x1 = 0.9	960.848	2.163
318.15 K, x1 = 1	957.624	1.935
323.15 K, x1 = 0.0999	1001.29	8.864
323.15 K, x1 = 0.2	991.678	6.665
323.15 K, x1 = 0.3	984.178	5.141
323.15 K, x1 = 0.3999	978.01	4.159
323.15 K, x1 = 0.4998	972.59	3.435
323.15 K, x1 = 0.6	967.647	2.889
323.15 K, x1 = 0.6996	963.208	2.483
323.15 K, x1 = 0.7999	959.336	2.166
323.15 K, x1 = 0.9	955.922	1.924
323.15 K, x1 = 1	952.631	1.728
